Assays:
[1] = tested on: human dendritic cells; assay: Lysis of monocyte-derived dendritic cells cultured with human iNKT cells and lipid, PI staining; assay type: cell-based; details: 40 hours; for dendritic cell killing: various concentrations
Experimental: Monocyte-derived dendritic cells and human iNKT cells were cultured with various concentrations of each lipid for 40 hours and then PI stained to determine percent dendritic cell lysis (and percent survival).

[2] = tested on: EG7 cells (EL4 cells transfected with full length ovalbumin); assay: EG7 tumor regression in mice immunized with OVA plus lipid; assay type: in vivo; details: 800 μg OVA plus lipid four days after 1×10^6 EG7 cells
Experimental: Mice were injected with 1×10^6 EG7 cells (EL4 cells transfected with full length ovalbumin).

[3] = tested on: iNKT cells; assay: In vivo anergy of iNKT cells after lipid preconditioning; parameters: species or system mice; details: for iNKT cell anergy (IFNγ 18 h after OVA and alphaGalCer at day zero): preconditioned with 100 ng lipid at day −28
Experimental: The following experiment was designed to assess the in vivo anergy of iNKT cells as defined by their ability to enhance antigen-specific T- and B-cell responses. Mice were pre-conditioned at day −28 with individual lipids shown in FIG. 12 (100 ng i.v. of either alphaGalCer, IMM47, IMM60, or IMM70). Eighteen hours later, mice were bled to assess iNKT cell activation, as defined by IFN-gamma (determined by ELISA(eBioscience)), results shown in FIG. 13. At day zero (28 days after lipid preconditioning), expression of the iNKT cell activation marker PD1 was measured in splenic iNKT cells (FIG. 14).
Eighteen hours later, iNKT cell activation was analyzed by IFNγ expression by ELISA (FIG. 15). At day 7, T cell responses were analyzed (FIG. 16).

[4] = biological target: T1, iNKT cell TCR (Homo sapiens, UniProt P15813); details: cited from earlier work
T1 sequence (P15813 20-301 limits assumed): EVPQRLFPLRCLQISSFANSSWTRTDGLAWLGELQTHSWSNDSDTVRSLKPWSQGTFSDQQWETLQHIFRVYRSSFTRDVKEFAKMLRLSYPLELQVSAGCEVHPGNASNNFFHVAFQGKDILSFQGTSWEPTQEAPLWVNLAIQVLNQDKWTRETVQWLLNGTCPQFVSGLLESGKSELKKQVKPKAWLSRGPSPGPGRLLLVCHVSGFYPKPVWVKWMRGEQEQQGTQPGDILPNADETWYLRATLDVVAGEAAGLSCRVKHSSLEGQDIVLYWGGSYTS

[5] = biological target: T2, human iNKT cell TCRs for hCD1d loaded with lipid (Homo sapiens, UniProt P15813); assay: SPR of soluble human iNKT TCR binding to hCD1d-lipid complexes
T2 construct: made in house
T2 sequence (P15813 20-301 limits assumed): T1 sequence (P15813 20-301 limits assumed)
From the text: The binding kinetics of these ThrCer and α-GalCer analogue compounds were examined. To this end, bacterially-expressed hCD1d and β-2-microglobulin (β 2 M) molecules were refolded with the thioamide, and carbamate analogues of both α-GalCer and ThrCer by oxidative refolding chromatography, and then biotinylated. The urea analogues of α-GalCer and ThrCer could not be refolded, and therefore, no surface plasmon resonance (SPR) data are available for these molecules. Soluble human iNKT TCR was prepared. SPR experiments were used to measure the affinity and kinetics of human iNKT cell TCRs for hCD1d loaded with α-GalCer, ThrCer, and their thioamide and carbamate analogues (FIGS. 5A-5B). To this end, increasing concentrations of TCR were injected for 5 seconds over the indicated complex immobilized on the BIAcore chip until the specific binding reached its plateau. Kd and Bmax were calculated by fitting the data using non-linear regression binding kinetics model (FIGS. 5A-5B). Kinetic measurements for the koff were calculated using BIAevaluation software kit; kon values were calculated from the experimental koff and Kd.
Protein expression and purification: hCD1d and β2m were refolded with α-GalCer, IMM47, IMM60, IMM70 or IMM80 by oxidative chromatography. In summary, CD1d and β2m were overexpressed in E. coli BL21 using a prokaryotic expression system (Novagen, UK). […]

CCCCCCCCCCCCCCCCCCCCCCCCCC(=O)N[C@H](CO[C@H]1CC[C@H](O)[C@H](O)[C@H]1O)[C@@H](O)[C@@H](O)CCCCCCCCCCCCCC [IMM60, N-((2R,3R,4S)-3,4-dihydroxy-1-(((1S,2R,3S,4S)-2,3,4-trihydroxycyclohexyl)oxy)octadecan-2-yl)hexacosanamide]
dendritic cell killing [1]: highest dendritic cell killing | regression of established tumour [2]: induced regression of the established tumour | iNKT cell activation (IFN-gamma at 18 h, PD1 at 28 days) ([3]; 100 ng i.v. preconditioning at day −28): stronger iNKT cell activation than IMM47, IMM70, or even alphaGalCer | iNKT cell anergy (IFNγ 18 h after OVA and alphaGalCer at day zero) [3]: highest iNKT cell anergy

CCCCCCCCCCCCCCCCCCCCCCCCCC(=O)N[C@H](CO[C@H]1CCC[C@H](O)[C@H](O)[C@H]1O)[C@@H](O)[C@@H](O)CCCCCCCCCCCCCC [IMM70, N-((2R,3R,4S)-3,4-dihydroxy-1-(((1S,2R,3S,4S)-2,3,4-trihydroxycycloheptyl)oxy)octadecan-2-yl)hexacosanamide]
percentage of DC lysis ([1]; concentrations lower than 5 ng/ml): very similar to the results obtained with IMM47 | T-cell response ([3]; day 7 after immunization of preconditioned mice): highest T-cell response | iNKT cell anergy (IFNγ 18 h after OVA and alphaGalCer at day zero) [3]: functional iNKT cells

CCCCCCCCCCCCCCCCCCCCCCCC(=O)NC(COC1OC(CO)C(O)C(O)C1O)C(O)C(O)CCCCC (stereo not shown) [OCH9 12]
Kd ([4]; OCH9 on CD1d): 123 ± 9.08 µM | k0 (on rate) ([4]; OCH9 on CD1d): 23000 ± 1000 M⁻¹ s⁻¹ | koff ([4]; OCH9 on CD1d): 2.67 ± 0.12 s⁻¹ | interaction with iNKT cell TCRs ([4]; recent study, versus α-GalCer): weaker interactions than α-GalCer

CCCCCCCCCCCCCCCCCCCCCCCCCC(=O)N[C@@H](COC[C@H](O)[C@@H](O)CO)[C@H](O)[C@H](O)CCCCCCCCCCCCCC [ThrCer 2, threitolceramide]
dendritic cell killing [1]: lowest dendritic cell killing | iNKT cell anergy (IFNγ 18 h after OVA and alphaGalCer at day zero) [3]: weakest iNKT cell anergy

CCCCCCCCCCCCCCCCCCCCCCCCCC(=O)N[C@@H](CO[C@H]1O[C@H](CO)[C@H](O)[C@H](O)[C@H]1O)[C@H](O)[C@H](O)CCCCCCCCCCCCCC [α-GalCer 1, α-galactosylceramide]
kon ([5]; calculated from experimental koff and Kd): 2580 ± 90 M⁻¹ s⁻¹ | koff ([5]; lipid on CD1d, read-out: experimental koff): 0.565 ± 0.008 s⁻¹ | iNKT cell anergy (IFNγ 18 h after OVA and alphaGalCer at day zero) [3]: highest iNKT cell anergy

Reference: US10765648B2, “iNKT cell modulators and methods of using the same” (LUDWIG INSTITUTE FOR CANCER RESEARCH, priority 2011, dated 2020)
